Read-outs that look alike come from different tables or passages of the source.
How the values were obtained:
[1] = tested on: phosphorylated AKT Ser473 (pAKT S473), mTORC2 activity, PC3 cells; experiment: mTOR target engagement assay, immunofluorescent cell-based, pAKT S473 readout (mTORC2 activity)
Procedure, shortened: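 After blocking, cells were stained overnight at 4 °C with anti-pAKT S473 antibody, then a fluorescent secondary; inhibition was read as reduced fluorescence intensity.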

[2] = tested on: phosphorylated 4E-BP1 Thr37/46 (p4E-BP1 Thr37/46), mTORC1 activity, PC3 cells; experiment: mTOR target engagement assay, immunofluorescent cell-based, p4E-BP1 Thr37/46 readout (mTORC1 activity); settings: read-out: p4E-BP1 Thr37/46 IC50
Procedure, shortened: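 Seed PC3 cells overnight; treat with compound dilutions for ninety minutes at 37° C; fix with glyoxal and block; stain with anti-p4E-BP1 Thr37/46 overnight at 4° C, then fluorescent secondary; read fluorescence and fit IC50 against DMSO-only controls.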

[3] = Homo sapiens, PC-3, PC3 cells, compound treatment ninety minutes at 37° C.
[4] = Homo sapiens, PC-3, Table 6-1, PC3 cells
[5] = Homo sapiens, PC-3, Table 3-1, PC3 cells

Nc1c(C2CC2)c([C@@H]2C[C@H]3CC[C@@H](C2)N3C(=O)CO)nc2c(-c3ccc(-c4cccc(F)c4)nc3)cnn12 [Compound 4.22, 1-((1R,3s,5S)-3-(7-amino-6-cyclopropyl-3-(6-(3-fluorophenyl)pyridin-3-yl)pyrazolo[1,5-a]pyrimidin-5-yl)-8-azabicyclo[3.2.1]octan-8-yl)-2-hydroxyethanone]
IC50 [1, 3]: 100 to 1000 nM
IC50 [2, 3]: 100 to 1000 nM

CS(=O)(=O)c1c([C@@H]2C[C@H]3CC[C@@H](C2)N3C(=O)c2nnc[nH]2)nc2c(-c3ccc(OCC4CC4)nc3)cnn2c1N [Compound 8.54, ((1R,3s,5S)-3-(7-amino-3-(6-(cyclopropylmethoxy)pyridin-3-yl)-6-(methylsulfonyl)pyrazolo[1,5-a]pyrimidin-5-yl)-8-azabicyclo[3.2.1]octan-8-yl)(4H-1,2,4-triazol-3-yl)methanone]
IC50 ([1]; Homo sapiens, PC-3, PC3 cells): > 10000 nM
IC50 ([2]; Homo sapiens, PC-3, PC3 cells): > 10000 nM

Cc1[nH]nc(-c2ccc(-c3cnn4c(N)c(C5CC5)c([C@@H]5C[C@H]6CC[C@@H](C5)N6C(=O)c5nnc[nH]5)nc34)cn2)c1F [Compound 4.19, ((1R,3s,5S)-3-(7-amino-6-cyclopropyl-3-(6-(4-fluoro-5-methyl-1H-pyrazol-3-yl)pyridin-3-yl)pyrazolo[1,5-a]pyrimidin-5-yl)-8-azabicyclo[3.2.1]octan-8-yl)(4H-1,2,4-triazol-3-yl)methanone]
IC50 [1, 3]: 100 to 1000 nM
IC50 [2, 3]: 100 to 1000 nM

CNC(=O)Nc1ccc(-c2cnn3c(N)c(C(C)=O)c([C@@H]4C[C@H]5CC[C@@H](C4)N5C(=O)c4nnc[nH]4)nc23)cc1 [Compound 8.85, 1-(4-(5-((1R,3s,5S)-8-(4H-1,2,4-triazole-3-carbonyl)-8-azabicyclo[3.2.1]octan-3-yl)-6-acetyl-7-aminopyrazolo[1,5-a]pyrimidin-3-yl)phenyl)-3-methylurea]
IC50 ([1]; Homo sapiens, PC-3, PC3 cells): 1 to 100 nM
IC50 ([2]; Homo sapiens, PC-3, PC3 cells): 100 to 1000 nM

CC(=O)c1c([C@@H]2C[C@H]3CC[C@@H](C2)N3C(=O)c2nnc[nH]2)nc2c(-c3ccc(-c4ncc[nH]4)cc3)cnn2c1N [Compound 6.43, 1-(3-(4-(1H-imidazol-2-yl)phenyl)-5-((1R,3s,5S)-8-(4H-1,2,4-triazole-3-carbonyl)-8-azabicyclo[3.2.1]octan-3-yl)-7-aminopyrazolo[1,5-a]pyrimidin-6-yl)ethanone]
IC50 [1, 4]: 1 to 100 nM
IC50 [2, 4]: 1 to 100 nM

CS(=O)(=O)c1c([C@@H]2C[C@H]3CC[C@@H](C2)N3c2nnn[nH]2)nc2c(-c3ccc(-c4ccccc4)nc3)cnn2c1N [Compound 3.18, 5-((1R,3s,5S)-8-(1H-tetrazol-5-yl)-8-azabicyclo[3.2.1]octan-3-yl)-6-(methylsulfonyl)-3-(6-phenylpyridin-3-yl)pyrazolo[1,5-a]pyrimidin-7-amine]
IC50 [1, 5]: > 10000 nM
IC50 [2, 5]: > 10000 nM

CS(=O)(=O)c1c([C@@H]2C[C@H]3CC[C@@H](C2)N3C(=O)c2nnc[nH]2)nc2c(-c3ccc(-c4nccs4)nc3)cnn2c1N [Compound 3.24, ((1R,3s,5S)-3-(7-amino-6-(methylsulfonyl)-3-(6-(thiazol-2-yl)pyridin-3-yl)pyrazolo[1,5-a]pyrimidin-5-yl)-8-azabicyclo[3.2.1]octan-8-yl)(4H-1,2,4-triazol-3-yl)methanone]
IC50 [1, 5]: 1 to 100 nM
IC50 [2, 5]: 1 to 100 nM

CS(=O)(=O)c1c([C@@H]2C[C@H]3CC[C@@H](C2)N3C(=O)CO)nc2c(-c3ccc(-c4ccccc4F)nc3)cnn2c1N [Compound 3.132, 1-((1R,3a,5S)-3-(7-amino-3-(6-(2-fluorophenyl)pyridin-3-yl)-6-(methylsulfonyl)pyrazolo[1,5-a]pyrimidin-5-yl)-8-azabicyclo[3.2.1]octan-8-yl)-2-hydroxyethanone]
IC50 [1, 5]: 1 to 100 nM
IC50 [2, 5]: 100 to 1000 nM

COc1ccc(-c2ncc(-c3cnn4c(N)c(S(C)(=O)=O)c([C@@H]5C[C@H]6CC[C@@H](C5)N6C(=O)CO)nc34)cn2)c(F)c1F [Compound 3.149, 1-((1R,3s,5S)-3-(7-amino-3-(2-(2,3-difluoro-4-methoxyphenyl)pyrimidin-5-yl)-6-(methylsulfonyl)pyrazolo[1,5-a]pyrimidin-5-yl)-8-azabicyclo[3.2.1]octan-8-yl)-2-hydroxyethanone]
IC50 [1, 5]: 1000 to 10000 nM
IC50 [2, 5]: 100 to 1000 nM

CNC(=O)Nc1ccc(-c2cnn3c(N)cc([C@@H]4C[C@H]5CC[C@@H](C4)N5C(=O)c4nnc[nH]4)nc23)cc1 [Compound 8.80, 1-(4-(5-((1R,3s,5S)-8-(4H-1,2,4-triazole-3-carbonyl)-8-azabicyclo[3.2.1]octan-3-yl)-7-aminopyrazolo[1,5-a]pyrimidin-3-yl)phenyl)-3-methylurea]
IC50 ([1]; Homo sapiens, PC-3, PC3 cells): > 10000 nM
IC50 ([2]; Homo sapiens, PC-3, PC3 cells): > 10000 nM

CS(=O)(=O)c1c([C@@H]2C[C@H]3CC[C@@H](C2)N3C(=O)NC2CC2)nc2c(-c3ccc(-c4ccccc4)nc3)cnn2c1N [Compound 3.11, (1R,3s,5S)-3-(7-amino-6-(methylsulfonyl)-3-(6-phenylpyridin-3-yl)pyrazolo[1,5-a]pyrimidin-5-yl)-N-cyclopropyl-8-azabicyclo[3.2.1]octane-8-carboxamide]
IC50 [1, 5]: 100 to 1000 nM
IC50 [2, 5]: 1000 to 10000 nM

CS(=O)(=O)c1c([C@@H]2C[C@H]3CC[C@@H](C2)N3C(=O)c2nnc[nH]2)nc2c(-c3ccc(-c4cccc(F)c4)nc3)cnn2c1N [Compound 3.46, ((1R,3s,5S)-3-(7-amino-3-(6-(3-fluorophenyl)pyridin-3-yl)-6-(methylsulfonyl)pyrazolo[1,5-a]pyrimidin-5-yl)-8-azabicyclo[3.2.1]octan-8-yl)(4H-1,2,4-triazol-3-yl)methanone]
IC50 [1, 5]: 1 to 100 nM
IC50 [2, 5]: 1 to 100 nM

CS(=O)(=O)c1c([C@@H]2C[C@H]3CC[C@@H](C2)N3C(=O)c2nnc[nH]2)nc2c(-c3ccc(-c4ccc(OC(F)F)cc4)nc3)cnn2c1N [Compound 3.55, ((1R,3s,5S)-3-(7-amino-3-(6-(4-(difluoromethoxy)phenyl)pyridin-3-yl)-6-(methylsulfonyl)pyrazolo[1,5-a]pyrimidin-5-yl)-8-azabicyclo[3.2.1]octan-8-yl)(4H-1,2,4-triazol-3-yl)methanone]
IC50 [1, 5]: 1 to 100 nM
IC50 [2, 5]: 1 to 100 nM

CC(=O)Nc1nc(C(=O)N2[C@@H]3CC[C@H]2C[C@H](c2nc4c(-c5ccc(-c6ccccc6)nc5)cnn4c(N)c2C(C)=O)C3)n[nH]1 [Compound 1.1.142, N-(3-((1R,3s,5S)-3-(6-acetyl-7-amino-3-(6-phenylpyridin-3-yl)pyrazolo[1,5-a]pyrimidin-5-yl)-8-azabicyclo[3.2.1]octane-8-carbonyl)-1H-1,2,4-triazol-5-yl)acetamide]
IC50 [1, 3]: 100 to 1000 nM
IC50 [2, 3]: 100 to 1000 nM

CS(=O)(=O)c1c([C@@H]2C[C@H]3CC[C@@H](C2)N3C(=O)c2nnc[nH]2)nc2c(-c3ccc(-c4nc5c(s4)CCC5)nc3)cnn2c1N [Compound 3.193, ((1R,3s,5)S-3-(7-amino-3-(6-(5,6-dihydro-4H-cyclopenta[d]thiazol-2-yl)pyridin-3-yl)-6-(methylsulfonyl)pyrazolo[1,5-a]pyrimidin-5-yl)-8-azabicyclo[3.2.1]octan-8-yl)(4H-1,2,4-triazol-3-yl)methanone]
IC50 [1, 5]: 100 to 1000 nM
IC50 [2, 5]: 100 to 1000 nM

CCC(=O)NNc1ccc(-c2cnn3c(N)c(C(C)=O)c([C@@H]4C[C@H]5CC[C@@H](C4)N5C(=O)CO)nc23)cn1 [Compound 8.52, N′-(5-(6-acetyl-7-amino-5-((1R,3s,5S)-8-(2-hydroxyacetyl)-8-azabicyclo[3.2.1]octan-3-yl)pyrazolo[1,5-a]pyrimidin-3-yl)pyridin-2-yl)propionohydrazide]
IC50 ([1]; Homo sapiens, PC-3, PC3 cells): 1000 to 10000 nM
IC50 ([2]; Homo sapiens, PC-3, PC3 cells): > 10000 nM

CS(=O)(=O)c1c([C@@H]2C[C@H]3CC[C@@H](C2)N3C(=O)c2ccn[nH]2)nc2c(-c3ccc(-c4ccccc4F)nc3)cnn2c1N [Compound 3.135, ((1R,3s,5S)-3-(7-amino-3-(6-(2-fluorophenyl)pyridin-3-yl)-6-(methylsulfonyl)pyrazolo[1,5-a]pyrimidin-5-yl)-8-azabicyclo[3.2.1]octan-8-yl)(1H-pyrazol-5-yl)methanone]
IC50 [1, 5]: 1 to 100 nM
IC50 [2, 5]: 1 to 100 nM

CC(=O)c1c([C@@H]2C[C@H]3CC[C@@H](C2)N3C(=O)c2nnc[nH]2)nc2c(-c3ccc(CO)nc3)cnn2c1N [Compound 7.1, 1-(5-((1R,3s,5S)-8-(4H-1,2,4-triazole-3-carbonyl)-8-azabicyclo[3.2.1]octan-3-yl)-7-amino-3-(6-(hydroxymethyl)pyridin-3-yl)pyrazolo[1,5-a]pyrimidin-6-yl)ethanone]
IC50 [1, 3]: 1 to 100 nM
IC50 [2, 3]: 1 to 100 nM

CC(=O)c1c([C@@H]2C[C@H]3CC[C@@H](C2)N3C(=O)C(C)(CO)CO)nc2c(-c3ccc(-c4ccccc4)nc3)cnn2c1N [Compound 1.1.1, 1-((1R,3s,5S)-3-(6-acetyl-7-amino-3-(6-phenylpyridin-3-yl)pyrazolo[1,5-a]pyrimidin-5-yl)-8-azabicyclo[3.2.1]octan-8-yl)-3-hydroxy-2-(hydroxymethyl)-2-methylpropan-1-one]
IC50 [1, 3]: 100 to 1000 nM
IC50 [2, 3]: 100 to 1000 nM

CC(=O)c1c([C@@H]2C[C@H]3CC[C@@H](C2)N3C(=O)c2nnc[nH]2)nc2c(-c3cnc(NC4CC4)nc3)cnn2c1N [Compound 8.49, 1-(5-((1R,3s,5S)-8-(4H-1,2,4-triazole-3-carbonyl)-8-azabicyclo[3.2.1]octan-3-yl)-7-amino-3-(2-(cyclopropylamino)pyrimidin-5-yl)pyrazolo[1,5-a]pyrimidin-6-yl)ethanone]
IC50 ([1]; PC3 cells): 1 to 100 nM
IC50 ([2]; PC3 cells): 1 to 100 nM
